Results on ten molecules are retold here after PubChem BioAssay (NCI).

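Results reflect a 48-hour exposure of cells in 96-well plates to compound at five concentrations. At the GI50, growth is halved. TGI marks complete inhibition of growth.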

Holding throughout (assay): NCI-60 cell line screen, 48 h
The subject of experiment [1] is CCRF-CEM leukemia.
Experiment [2] has as its system HOP-62 NSCLC.
Experiment [3] deals with IGROV1 ovarian.
The subject of experiment [4] is MOLT-4 leukemia.
Experiment [5] relates to NCI-H226 lung.
For experiment [6], the system named is NCI/ADR-RES ovarian.
In experiment [7] the test system is PC-3 prostate.
Experiment [8] concerns SF-268 CNS.
In experiment [9] the test system is SF-295 CNS.
Experiment [10] relates to SK-MEL-28 melanoma.
In experiment [11] the test system is SW-620 colon.
The subject of experiment [12] is UO-31 renal.

`NCCN1C(=O)CN=C(c2ccc(Cl)cc2)c2cc(Cl)ccc21`: the TGI is 64.2 µM in experiment [1]; 31.8 µM in experiment [2]; 27.1 µM in [3]; 73.8 µM in [4]; 31 µM in [5]; 32.8 µM in experiment [6]. Besides, the TGI in [7] is 30.1 µM; in experiment [8] it was 30.4 µM; in experiment [9], more than 100 µM; in experiment [10] it was more than 100 µM; in [11], 43 µM; in experiment [12] it was 27.3 µM.
Consider `CC1=C/C(=N\O)C(C(O)(C(F)(F)F)C(F)(F)F)C(C)(C)C1` (stereo unspecified), for which the TGI in experiment [1], in [2], in experiment [3], in experiment [4], in experiment [5] and in experiment [6] was more than 10 µM in each case. For the same molecule, the TGI in experiment [7], in [8], in [9], in experiment [10], in experiment [11] and in experiment [12] was more than 10 µM throughout.
Turning to `CCN1C(=O)C(C)S/C1=N\NC(=O)CSc1nc2ccccc2c(=O)n1CC` (stereo unspecified), the TGI in experiment [1], in experiment [2], in [3], in experiment [4], in [5] and in [6] was more than 100 µM each time. Besides, the TGI in experiment [7], in [8], in experiment [9], in experiment [10], in [11] and in experiment [12] was more than 100 µM throughout.
As for `Cc1ccc(-c2cc(C(F)(F)F)nn2-c2ccc(S(N)(=O)=O)cc2)cc1`, the TGI was 40.7 µM in experiment [1]; more than 100 µM in experiment [2]; more than 54.6 µM in experiment [3]; 53.2 µM in [4]; more than 100 µM in experiment [5]; 43.1 µM in experiment [6]. In addition, the TGI was 34.1 µM in [7]; more than 55.8 µM in experiment [8]; 55.4 µM in experiment [9]; more than 56.2 µM in experiment [10]; more than 56.3 µM in [11]; more than 53.2 µM in experiment [12]. Moreover, the GI50 in [5] is 28.2 µM.
With `CC1=CC[C@@]2(CO)[C@@H]([C@@H]1C)[C@H]1CC[C@@H]3[C@@]4(C)CC[C@H](O)C(C)(C)[C@@H]4CC[C@@]3(C)[C@]1(C)C[C@@H]2O`, the TGI in [1] was more than 100 µM; in [2], 39.8 µM; in [3], 82.3 µM; in experiment [4], more than 100 µM; in experiment [5], 81.4 µM; in experiment [6], more than 100 µM. Moreover, the TGI in experiment [7] is more than 100 µM; in [8], more than 100 µM; in [9] it was 58.4 µM; in experiment [10], more than 100 µM; in experiment [11], more than 100 µM; in experiment [12], more than 100 µM.
Consider `COC(=O)/C=C1/CCC(C)(C(=O)NS(=O)(=O)c2ccc(C)cc2)C1(C)C` (stereo unspecified), for which the TGI in [1], in [2], in experiment [3], in experiment [4], in experiment [5] and in experiment [6] was more than 100 µM throughout. Also, the TGI in experiment [7], in [8], in experiment [9], in experiment [10], in [11] and in experiment [12] was more than 100 µM throughout.
As for `CC(=O)Oc1ccccc1/C=C/C(=O)/C=C/c1ccccc1OC(C)=O`, the TGI in [1] is 12.6 µM; in experiment [2] it was 5.32 µM; in [3], 4.52 µM; in experiment [4], 5.71 µM; in experiment [5] it was 3.89 µM; in experiment [6], 7.39 µM. Further, the TGI in [7] worked out at 5.04 µM; in [8] it was 8.17 µM; in experiment [9] it was 6.11 µM; in [10] it was 4.09 µM; in experiment [11], 2.32 µM; in experiment [12] it was 3.48 µM.
With `O=P1(Oc2ccccc2)N(CCCl)CCN1c1ccccc1` (stereo unspecified), the TGI in [1], in experiment [2], in [3], in [4], in experiment [5] and in experiment [6] was more than 100 µM each time. Also, the TGI in experiment [7], in experiment [8], in [9], in [10], in experiment [11] and in [12] was more than 100 µM each time.
For the molecule `O=C(Nc1ccccc1)N(C1=NCC(CI)S1)c1ccc(F)cc1F` (stereo unspecified), the TGI in experiment [1] was 48.1 µM; in experiment [2] it was more than 100 µM; in experiment [3], 52 µM; in experiment [4], 57 µM; in experiment [5], more than 100 µM; in experiment [6] it was more than 100 µM. The TGI is more than 100 µM in experiment [7]; more than 100 µM in experiment [8]; more than 100 µM in [9]; 83.4 µM in [10]; more than 100 µM in experiment [11]; more than 100 µM in experiment [12].
Turning to `CCCCCCOc1ccc(C(=O)NO)cc1`, the TGI in experiment [1] worked out at 5.27 µM; in [2], 38.4 µM; in experiment [3], 23.2 µM; in experiment [4], 18.7 µM; in [5] it was 32.6 µM; in experiment [6], 18.5 µM. For the same molecule, the TGI in experiment [7] came out at 35.2 µM; in experiment [8], 28.7 µM; in experiment [9] it was 40.9 µM; in experiment [10] it was 43.9 µM; in experiment [11] it was 35.8 µM; in [12], 20.1 µM.
